Experimental data published in PMC5755735, “Discovery of indolylpiperazinylpyrimidines with dual-target profiles at adenosine A2A and dopamine D2 receptors for Parkinson's disease treatment” (PLoS ONE, 2018).

Tests used:
[1] = system: TAMH (TGF-α overexpressing mouse hepatocytes); assay: cell viability assay in TAMH hepatocytes (Cell-Titer-Glo); format: cell-based; details: concentrations less than 30 μM, 24 h
Description: Besides the mutagenicity study, compounds 5 and 6 were also subjected to cell viability assays using transforming growth factor-alpha mouse hepatocyte (TAMH) and HL-1 cardiomyocyte to assess the cytotoxic potential. TAMH lines were treated with compounds 5 and 6 in eight different concentrations (100 μM, 33.3 μM, 11.1 μM, 3.7 μM, 1.23 μM, 0.41 μM, 0.13 μM, 0.045 μM), and the percentage of viable cells was plotted against the logarithm of ligand concentration (S10B and S10C Fig). […] Acetaminophen, a drug with direct hepatotoxic potential, was used as the positive control in this assay (S10A Fig). […] Doxorubicin, a chemotherapeutic agent known to cause dose-dependent cardiotoxicity, was used as the positive control in this assay (S10D Fig).
Immortalised hepatocyte and cardiomyocyte cell lines, TAMH (TGF-α overexpressing mouse hepatocytes) and HL-1 were used respectively as models for in vitro toxicity studies. Both cell lines were cultured in accordance with previously described methods. […] The cell-reagent mixture was transferred to a solid white flat-bottom 96-well plate (Greiner 655207) for luminescence reading. Luminescence was recorded with an integration time of 0.25 second with a Tecam Infinite® M200 Microplate reader. Data are expressed as percentage of viable cells compared to DMSO-treated controls. […]

[2] = system: Salmonella strains TA98 and TA100; assay: Ames mutagenicity test; format: cell-based, Salmonella typhimurium; details: 10 μM and 100 μM; TA98 and TA100, +S9 and –S9
Description: In the toxicity studies, in vitro assays for mutagenicity and cytotoxicity were performed on compounds 5 and 6. These compounds were investigated for their mutagenic potential through the Ames assay. Two Salmonella strains TA98 and TA100 with pre-existing mutations (His^-) were selected. Both strains are unable to synthesize histidine (one of the growth requirements for these strains) and therefore cannot form colonies on the agar plate.
Together with the compounds, the Salmonella strains were incubated in the presence (+S9) and absence (–S9) of a metabolizing system “S9 mix” consisting of 9000 g supernatant fraction of rat liver microsomes, nicotinamide adenine dinucleotide phosphate (NADP) and cofactors. Exogenous “S9 mix” was included due to the lack of CYP metabolizing enzymes in Salmonella typhimurium. In the assay, agar plates +S9 and–S9 were used to detect pro-mutagens for cases where the native chemical was not mutagenic but its metabolites were mutagens, and direct-acting mutagens, respectively. […]
In vitro mutagenicity was performed using a modified Ames Test protocol according to manufacturer’s instructions (MolTox). […] The cultures were then measured for absorbance with a UV spectrophotometer at 660 nm and to be used at a density of approximately 1.0 to 1.2 absorbance units. […] Images of colonies were captured and counted with the aid of ImageJ software.

Cc1cc(C)nc(N2CCN(C(=O)c3c[nH]c4ccccc34)CC2)n1 [Compound 5, 3‐[4‐(4,6‐Dimethylpyrimidin‐2‐yl)piperazine‐1‐carbonyl]‐1H‐indole]
cytotoxicity (cell viability) [1]: non-cytotoxic
mutagenicity (number of His+ revertants) [2]: no significant mutagenicity

Cc1cc(C)nc(N2CCN(C(=O)Cc3c(C)[nH]c4ccccc34)CC2)n1 [Compound 6, 1‐[4‐(4,6‐Dimethylpyrimidin‐2‐yl)piperazin‐1‐yl]‐2‐(2‐methyl‐1H‐indol‐3‐yl)ethan‐1‐one]
cytotoxicity (cell viability) [1]: non-cytotoxic
mutagenicity (number of His+ revertants) [2]: no significant mutagenicity
